US10670600B2, “Saposin-A derived peptides and uses thereof” (CHILDREN'S MEDICAL CENTER CORPORATION, priority 2007, dated 2020)
Bridge positions count the residues as written; N and C are the ends. Ends that are not written are not given here.

Assays:
Psap in PC3-MycER cells = assay: Psap levels in PC3-MycER cells, western blot; format: cell-based, human; conditions: induction of Myc function
Experimental: For Western blotting, cells were harvested by mechanical scraping into 4° C. PBS, cell pellets were obtained by removing PBS after centrifugation at 13,000 rpm in a Heraeus Biofuge Fresco (Thermo Electron, Asheville, N.C.) for 2 min. Cells were then lysed in 50 mM Tris-HCl (pH 7.4), 150 mM NaCl, 1% NP40, 1 mM sodium orthovanadate, 5 mM NaF, 20 mM β-glycerophosphate, and complete protease inhibitor (Roche, Indianapolis, Ind.) and protein concentrations were determined by the BioRad protein assay (BioRad, Hercules, Calif.). Fifty micrograms of protein were loaded per well onto a 4-12% pre-cast Bis-Tris gel (BioRad, Hercules, Calif.). The protein extracts were electrophoresed and transferred to an immobilon-P membrane (Millipore, Bedford, Mass.). The membranes were blocked in 5% nonfat milk and incubated in primary antibody to Tsp-1 (Ab-11, LabVision, Fremont, Calif.), c-Myc and phospho-Myc (Cell Signaling Technology, Beverly, Mass.), Prosaposin (Santa Cruz Biotechnology, Santa Cruz, Calif.), β-actin (AbCam, Cambridge, UK). The membranes were then washed in PBS+0.1% Tween-20 and incubated with either HRP-conjugated goat anti-mouse or anti-rabbit secondary antibody (Jackson Immunoresearch Laboratories, West Grove, Pa.) followed by another wash. […] Protein volume intensity was determined using a Bio-Rad Chemi-Doc XRS system (Bio-Rad, CA). […]

[1] = tested on: MDM2 in WI-38 fibroblasts; assay: MDM2 protein levels in WI-38 fibroblasts, western blot; format: cell-based, human
p53 in WI-38 fibroblasts = assay: p53 expression in WI-38 fibroblasts, western blot; format: cell-based, human
[2] = tested on: Tsp-1 expression in WI-38 lung fibroblasts; assay: Tsp-1 expression in WI-38 lung fibroblasts, western blot; format: cell-based, human
Experimental: (§1) For the conditioned media assay, 1.5×10^6 tumor cells and fibroblasts cells were grown in the tumor cell media containing 0.1% FBS for 12 hours at which point the conditioned media from the tumor cells was centrifuged to remove any cells or cell debris and transferred to the fibroblasts subsequent to removal of the low serum fibroblast growth media. All assays were performed a minimum of five times and representative samples depicted. The fibroblasts and media were harvested after 12 to 16 hours after addition of the tumor cell conditioned media and lysed for the western blot analysis while the conditioned media was collected for ELISA analysis. For the co-culture assays, 1×10^6 fibroblasts were seeded in the bottom chamber of transwell tissue culture plates (Corning Inc., Corning, N.Y.) and 1×10^6 tumor cells were seeded on the membrane in the top chamber of the plates. The two cell types were co-cultured for 40 to 44 hours in tumor cell media containing 0.1% FBS before harvesting and lysing the fibroblasts for western blot analysis and collecting the media for ELISA analysis.
For Western blotting, cells were harvested by mechanical scraping into 4° C. PBS, cell pellets were obtained by removing PBS after centrifugation at 13,000 rpm in a Heraeus Biofuge Fresco (Thermo Electron, Asheville, N.C.) for 2 min. Cells were then lysed in 50 mM Tris-HCl (pH 7.4), 150 mM NaCl, 1% NP40, 1 mM sodium orthovanadate, 5 mM NaF, 20 mM β-glycerophosphate, and complete protease inhibitor (Roche, Indianapolis, Ind.) and protein concentrations were determined by the BioRad protein assay (BioRad, Hercules, Calif.). Fifty micrograms of protein were loaded per well onto a 4-12% pre-cast Bis-Tris gel (BioRad, Hercules, Calif.). The protein extracts were electrophoresed and transferred to an immobilon-P membrane (Millipore, Bedford, Mass.). The membranes were blocked in 5% nonfat milk and incubated in primary antibody to Tsp-1 (Ab-11, LabVision, Fremont, Calif.), c-Myc and phospho-Myc (Cell Signaling Technology, Beverly, Mass.), Prosaposin (Santa Cruz Biotechnology, Santa Cruz, Calif.), β-actin (AbCam, Cambridge, UK). The membranes were then washed in PBS+0.1% Tween-20 and incubated with either HRP-conjugated goat anti-mouse or anti-rabbit secondary antibody (Jackson Immunoresearch Laboratories, West Grove, Pa.) followed by another wash. The membrane was then developed with ECL reagent (Pierce, Rockford, Ill.) and exposed on film. Protein volume intensity was determined using a Bio-Rad Chemi-Doc XRS system (Bio-Rad, CA). […]
Seven 20-amino acid (20-mer) peptides derived from saposin A were tested for ability to stimulate Tsp-1 expression in fibroblasts. […] WI-38 lung fibroblasts were treated with these peptides overnight and the Tsp-1 expression was analyzed by Western blot analysis. […]

[3] = tested on: Tsp-1 expression in prostate fibroblasts; assay: Tsp-1 expression in prostate fibroblasts, western blot; format: cell-based, human; conditions: for stimulation of Tsp-1 by PC3 conditioned media in the presence of inhibitor: prostate fibroblasts treated with PC3 CM plus inhibitor
Experimental: (§2) Methods of assaying the effects of mutant, fragment or variant Psap on Tsp-1 and p53 expression are described herein. Briefly, full-length, mutant, fragment and variant Psap are applied to the cell cultures prostate fibroblast. The conditioned media from PC3M-LN4 (LN4) and PC3 cells are used as controls, with PC3 as positive/stimulating control and LN4 as negative/inhibiting controls. After a period of included (˜16 h), the cells are harvested, rinsed, and lysed. The lysates are analyzed for the level of Tsp-1 and p53 expression by western blot analyses, with β-actin as the internal lysate protein loading control.
as §1
For Western blotting, cells were harvested by mechanical scraping into 4° C. PBS, cell pellets were obtained by removing PBS after centrifugation at 13,000 rpm in a Heraeus Biofuge Fresco (Thermo Electron, Asheville, N.C.) for 2 min. Cells were then lysed in 50 mM Tris-HCl (pH 7.4), 150 mM NaCl, 1% NP40, 1 mM sodium orthovanadate, 5 mM NaF, 20 mM β-glycerophosphate, and complete protease inhibitor (Roche, Indianapolis, Ind.) and protein concentrations were determined by the BioRad protein assay (BioRad, Hercules, Calif.). Fifty micrograms of protein were loaded per well onto a 4-12% pre-cast Bis-Tris gel (BioRad, Hercules, Calif.). The protein extracts were electrophoresed and transferred to an immobilon-P membrane (Millipore, Bedford, Mass.). […] Protein volume intensity was determined using a Bio-Rad Chemi-Doc XRS system (Bio-Rad, CA).

[4] = tested on: p53 expression in prostate fibroblasts; assay: p53 expression in prostate fibroblasts, western blot; format: cell-based, human
Experimental: as §2, with “control. […]” for “control.”
For Western blotting, cells were harvested by mechanical scraping into 4° C. […] Cells were then lysed in 50 mM Tris-HCl (pH 7.4), 150 mM NaCl, 1% NP40, 1 mM sodium orthovanadate, 5 mM NaF, 20 mM β-glycerophosphate, and complete protease inhibitor (Roche, Indianapolis, Ind.) and protein concentrations were determined by the BioRad protein assay (BioRad, Hercules, Calif.). […] Protein volume intensity was determined using a Bio-Rad Chemi-Doc XRS system (Bio-Rad, CA).
Having determined that p53 protein levels were elevated in the stroma of PC3 tumors, the inventors determined if p53 stimulation could be responsible for the increased expression of Tsp-1. […]

thrombospondin-1 (Tsp-1) = assay: Tsp-1 expression in lungs and livers of treated mice, western blot; format: in vivo
Experimental: The 20-mer […] (SEQ. ID. No. 29) was tested in vivo in mice for their ability to induce Tsp-1 expression. Four mice were treated with the 20-amino acid peptide (residues 31-50 of saposin A) at a dose of 30 mg/kg/day in combination with 200 μL of conditioned media (CM) from the metastatic prostate cancer cell line PC3M-LN4. […] Another four mice were treated with CM from PC3M-LN4 alone, and a control group of four mice with treated with vehicle (PBS) alone. […] Mice were treated for 9 days after which they were sacrificed and the lungs and livers were harvested and lysed. Tissue lysates were then run on a 4-12% gradient bis-tris polyacrylamide gel and transferred to a nitrocellulose membrane for western blotting with antibodies specific for thrombospondin-1 (Tsp-1) and β-actin.

semaphorin 3F = semaphorin 3F mRNA in WI-38 fibroblasts, real time RT-PCR; format: cell-based, human; conditions: conditioned media of cells with or without prosaposin, relative to GAPDH
Experimental: FIG. 25. mRNA levels of semaphorin 3F, relative to GAPDH, in WI-38 fibroblasts that were untreated (NoTxPrSc) treated with conditioned media from PC3, PC3-shprosaposin (PC3-sh), PC3M-LN4 (LN4) and PC3M-LN4 cells ectopically expressing prosaposin (LN4Psap) as determined by real time RT-PCR.
Finally, it was determined that prosaposin stimulates the expression of semaphorin 3F, a transcriptional target of p53 and an inhibitor of metastasis and lymphangiogenesis, at the mRNA level (FIG. 25).

[5] = WI-38 fibroblasts, in the presence of the cyclic 13-mer
[6] = WI-38 fibroblasts treated with peptide
[7] = WI-38 lung fibroblasts treated with peptide
[8] = mice treated for 9 days, versus control
[9] = mice, 30 mg/kg/day with 200 μL PC3M-LN4 CM, 9 days, compared to PC3M-LN4 CM

Molecule: 4-hydroxy-tamoxifen [4-HT]
- reduction in Psap levels (Psap in PC3-MycER cells): 4 fold

Molecule: NC(=O)c1ccc(-c2nc(-c3ccc4c(c3)OCCO4)c(-c3ccccn3)[nH]2)cc1 [D4476, reference compound]
- MDM2 protein level (in words) [1, 5]: increase
- p53 protein level (in words) (p53 in WI-38 fibroblasts; [5]): reduction
- Tsp-1 protein level (in words) [2, 5]: reduction

Molecule: COc1ccc2c(c1)c(C1=C(c3c[nH]c4ccccc34)C(=O)NC1=O)cn2CCCN(C)C [GO 6983, reference compound]
- stimulation of Tsp-1 by PC3 conditioned media in the presence of inhibitor [3]: abolished
- stimulation of p53 by PC3 conditioned media in the presence of inhibitor ([4]; prostate fibroblasts treated with PC3 CM plus inhibitor): abolished

Molecule: CDWLPKPNMSASC (disulfide 1-13) [SEQ. ID. No. 37, cyclic 13 amino acid peptide, residues 35-47 of saposin A]
- MDM2 protein level (in words) [1, 6]: down regulation
- p53 expression (in words) (p53 in WI-38 fibroblasts; [6]): sufficient to stimulate
- Tsp-1 expression (in words) [2, 7]: sufficient to stimulate

Molecule: LEKTCDWLPKPNMSASCKEI [SEQ. ID. No. 29, 20-mer, residues 31-50 of saposin A]
- Tsp-1 expression (in words) [2, 7]: able to stimulate
- level of Tsp-1 stimulation relative to PC3 conditioned media (thrombospondin-1 (Tsp-1); mice treated for 9 days, lung and liver): greater
- Tsp-1 expression in the liver (in words) (thrombospondin-1 (Tsp-1); [8]): stimulated
- Tsp-1 expression in the lung (in words) (thrombospondin-1 (Tsp-1); [8]): stimulated
- stimulation of Tsp-1 expression in the liver (thrombospondin-1 (Tsp-1); [9]): 4 fold
- stimulation of Tsp-1 expression in the lung (thrombospondin-1 (Tsp-1); [9]): 6 fold

B1: prosaposin: saposin precursor protein, purified from PC3M-LN4 conditioned media with Talon metal affinity resin (protein, listed as Homo sapiens)
chain: MYALFLLASLLGAALAGPVLGLKCTRGSAVWCQNVKTASDCGAVKHCLQTVWNKPTVKSLPCDICKDVVTAAGDMLKDNATILVYLKTCDWLPKPNMSASCKIVDSYLPVILDIIKGMSRPGVCSALNLCSLQKHLALNHQKQLSNKIPLDMTVVAPFMANIPLLLYPQDGPRSKPQPKDNGDVCQDCIQMVTDIQTAVRTNSTFVQALVHVKCDRLGPGMADICKNYISQYSIAIQMMMHMQPKICALVGFCDVKMPMQTLVPAKVASKNVIPALLVPIKKHVPAKSDVYCVCFLVKVTKLIDNNKTKILDAFDKMCSKLPKSLSCQVVDTYGSSILSILLVSPLVCSMLHLCSGTRLPALTVHVTQPKDGGFCVCKKLVGYLDRNLKNSTKQILAALKGCSFLPDPYQKQCDQFVAYPVLIILVVMDPSFVCLKIGACPSAHKPLLGTKCIWGPSYWCQNTTAAQCNAVHCKRHVWN
- stimulation of Tsp-1 expression ([3]; prostate fibroblasts, western blot, band volume density, purified Psap 5 μg): ~5 fold
- p53 expression (in words) ([4]; prostate fibroblasts, western blot): stimulated
- expression of semaphorin 3F at the mRNA level (semaphorin 3F): stimulates

B2: RAP: Receptor Associate Protein, a competitive inhibitor of LRP binding (protein)
chain: YSREKNQPKPSPKRESGEEFRMEKLNQLWEKAQRLHLPPVRLAELHADLKIQERDELAWKKLKLDGLDEDGEKEARLIRNLNVILAKYGLDGKKDARQVTSNSLSGTQEDGLDDPRLEKLWHKAKTSGKFSGEELDKLWREFLHHKEKVHEYNVLLETLSRTEEIHENVISPSDLSDIKGSVLHSRHTELKEKLRSINQGLDRLRRVSHQGYSTEAEFEEPRVIDLWDLAQSANLTDKELEAFREELKHFEAKIEKHNHYQKQLEIAHEKLRHAESVGDGERVSRSREKHALLEGRTKELGYTVKKHLQDLSGRISRARHNEL
- stimulation of Tsp-1 by PC3 conditioned media in the presence of inhibitor [3]: no longer stimulated

B3: SLPCDICKDVVTAAGDMLKDNATEEEILVYLEKTCDWLPKPNMSASCKEIVDSYLPVILDIIKGEMSRPGEVCSALNLCES (protein, listed as Homo sapiens)
chain: SLPCDICKDVVTAAGDMLKDNATEEEILVYLEKTCDWLPKPNMSASCKEIVDSYLPVILDIIKGEMSRPGEVCSALNLCES
notes: cleavage product of Psap, expressed as truncation mutant
- stimulation of Tsp-1 (in words) ([3]; prostate fibroblasts, conditioned media of PC3M-LN4 cells transfected with truncation mutants): minimal domain that is functionally required for the stimulation of Tsp-1
- Tsp-1 expression (in words) ([2]; lung fibroblasts, CM from PC3M-LN4 cells transduced with truncated mutants of prosaposin): sufficient to stimulate
